One assay has as its system PC-3. Kind of assay: Cancer cell proliferation, tritiated thymidine incorporation. The conditions noted are these: PC-3 cultured in vitro. Format: cell-based, human.
Source text: (§1) TDFRP Compound Inhibition of LNCaP Cancer Cell Proliferation. BMP-6 and a TDFRP compound (SEQ ID NO:45) inhibited the proliferation of prostate cancer cells (LNCaP and PC-3) cultured in vitro as detected by the incorporation of tritiated thymidine (a measure of cell proliferation.
(§2) Prostate cancer is one of the most common cancers in men. […] Moreover, it has been shown that BMP signals inhibit the growth and the proliferation of human prostate tumor cells by upregulating the cyclin-dependent kinase inhibitor (CDKI) p21 (CIP1/WAF1) and decreasing the activity of Cdk2, leading to hypophosphorylation of Rb proteins. TDFRP compounds have been screened in in vitro prostate and bladder cancer bioassays to assess growth inhibitory activity of the compounds (FIG. 3). ^3H-thymidine incorporation is used as a marker for cell proliferation activity in human prostate and bladder cancer cell lines. Cisplatin inhibits ^3H-thymidine incorporation, indicating a tumor-growth suppressive activity of cisplatin in both human prostate and bladder cancer cells. TDFRP compounds are assayed in these cancer cells for the ability to induce receptor-regulated Smad 1/5 phosphorylation in a dose-dependent manner (FIG.).
as §2, with “(FIGS. 3, 28).” for “(FIG. 3).”, “(FIGS. 3, 28).” for “(FIG.).”
For orientation: Incorporation of labelled thymidine or its analogues reports DNA synthesis.

Another assay deals with LNCaP. Described as above. Format: cell-based, human. Particulars: LNCaP cultured in vitro.
Source text: as §1, §2
as §2, with “(FIGS. 3, 28).” for “(FIG. 3).”, “(FIGS. 3, 28).” for “(FIG.).”

The target in another assay is ALK-6 (Homo sapiens, UniProt O00238). The conditions noted are these: native protein; cited from earlier work.

The values below come from patent publication US8911953B2, “TDF-related compounds and analogs thereof, analogs and bioactive fragments” (Thrasos Innovation, Inc., priority 2005, dated 2014).

Positions of bridges follow the written chain, without caps; N, C: chain ends. No end group written: not given here.

Sequence of ALK-6 (O00238 14-502): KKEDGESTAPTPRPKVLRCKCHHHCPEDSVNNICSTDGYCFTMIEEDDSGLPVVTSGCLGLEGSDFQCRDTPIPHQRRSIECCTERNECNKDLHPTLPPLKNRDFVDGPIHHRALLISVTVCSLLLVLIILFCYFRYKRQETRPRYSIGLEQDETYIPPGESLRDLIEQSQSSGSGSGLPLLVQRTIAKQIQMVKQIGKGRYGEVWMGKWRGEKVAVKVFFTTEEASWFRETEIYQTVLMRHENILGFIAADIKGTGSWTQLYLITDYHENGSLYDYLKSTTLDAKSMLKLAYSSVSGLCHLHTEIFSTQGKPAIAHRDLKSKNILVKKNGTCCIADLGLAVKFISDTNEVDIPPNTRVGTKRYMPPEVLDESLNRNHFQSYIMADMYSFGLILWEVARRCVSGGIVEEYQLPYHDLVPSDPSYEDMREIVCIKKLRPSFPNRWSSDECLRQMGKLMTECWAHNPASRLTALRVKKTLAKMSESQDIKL

As for “CYFDDSSNVLCKKYRS (disulfide 1-11 (inferred); not fully specified) [SEQ ID NO:45]”, the “proliferation (incorporation of tritiated thymidine)” value in the assay on PC-3 and in the assay on LNCaP was “inhibited” in each case.

B1: BMP-7: recombinant human mature BMP-7 (BMP-7 or TDF-1), positive control therapy (protein)
chain: STGSKQRSQNRSKTPKNQEALRMANVAENSSSDQRQACKKHELYVSFRDLGWQDWIIAPEGYAAYYCEGECAFPLNSYMNATNHAIVQTLVHFINPETVPKPCCAPTQLNAISVLYFDDSSNVILKKYRNMVVRACGCH
Consider B1, for which the “affinity of binding to ALK-6” value with ALK-6 was “higher affinity”.
